What was measured:
Conditions in all cases: 72 h
[1] = test system: Caco-2; assay: cell viability relative to DMSO; higher = less toxic
[2] = test system: Calu-3; assay: as above
[3] = test system: HepG2; assay: as above
[4] = test system: U2OS; assay: as above
[5] = test system: Vero E6; assay: as above
[6] = test system: Caco-2; assay: relative viability EC50 (midpoint between 100% and the lowest measured viability); higher = less toxic
[7] = test system: Calu-3; assay: as above
[8] = test system: HepG2; assay: as above
[9] = test system: U2OS; assay: as above
[10] = test system: Vero E6; assay: as above
[11] = test system: Caco-2; assay: drug sensitivity score (DSS) for viability; higher = more toxic; extreme values may be limits of the assay
[12] = test system: Calu-3; assay: as above
[13] = test system: HepG2; assay: as above
[14] = test system: U2OS; assay: as above
[15] = test system: Vero E6; assay: as above

Compound	cell viability ([1]; 1 nM) [%]	cell viability ([1]; 10 nM) [%]	cell viability ([1]; 100 nM) [%]	cell viability ([1]; 1000 nM) [%]	cell viability ([1]; 10000 nM) [%]	cell viability ([2]; 1 nM) [%]	cell viability ([2]; 10 nM) [%]	cell viability ([2]; 100 nM) [%]	cell viability ([2]; 1000 nM) [%]	cell viability ([2]; 10000 nM) [%]	cell viability ([3]; 1 nM) [%]	cell viability ([3]; 10 nM) [%]	cell viability ([3]; 100 nM) [%]	cell viability ([3]; 1000 nM) [%]	cell viability ([3]; 10000 nM) [%]	cell viability ([4]; 1 nM) [%]	cell viability ([4]; 10 nM) [%]	cell viability ([4]; 100 nM) [%]	cell viability ([4]; 1000 nM) [%]	cell viability ([4]; 10000 nM) [%]	cell viability ([5]; 1 nM) [%]	cell viability ([5]; 10 nM) [%]	cell viability ([5]; 100 nM) [%]	cell viability ([5]; 1000 nM) [%]	cell viability ([5]; 10000 nM) [%]	relative viability EC50 [6] [µM]	relative viability EC50 [7] [µM]	relative viability EC50 [8] [µM]	relative viability EC50 [9] [µM]	relative viability EC50 [10] [µM]	drug sensitivity score [11]	drug sensitivity score [12]	drug sensitivity score [13]	drug sensitivity score [14]	drug sensitivity score [15]
CC(=O)c1c(O)cc(C)oc1=O [dehydroacetic-acid]	101	107	91.9	104	94.9	105	107	98.2	101	101	100	103	99.9	96.7	103	99.2	101	96.2	103	100	98	93.6	92.5	101	95.4	> 10	> 10	> 10	> 10	> 10	0	0	0	0	0
CNCC(O)c1ccc(OC(=O)C(C)(C)C)c(OC(=O)C(C)(C)C)c1 (stereo not given) [dipivefrine]	104	94	102	90.4	85	97.9	102	106	96.3	109	97.5	94.1	98.2	97.7	84.3	99.4	95.1	97.3	96.2	97.1	100	100	93.3	98.3	97.4	> 10	> 10	> 10	> 10	> 10	0.9	0	0.5	0	0
CN(CCOc1ccc(NS(C)(=O)=O)cc1)CCc1ccc(NS(C)(=O)=O)cc1 [dofetilide]	91.1	99.9	99.1	97.1	102	111	90.4	101	98.6	104	100	102	89.5	117	118	100	102	102	96.6	97	92.6	104	90.2	98.1	110	> 10	> 10	> 10	> 10	> 10	0	0	0	0	0
NCCc1ccc(O)c(O)c1 [dopamine]	106	97.7	92.5	91.1	89.9	100	100	100	99.8	109	106	107	95.1	115	99.6	101	96.6	101	100	100	103	106	102	97	99.4	> 10	> 10	> 10	> 10	> 10	0	0	0	0	0
CC(C)(O)CNc1nc(Nc2ccnc(C(F)(F)F)c2)nc(-c2cccc(C(F)(F)F)n2)n1 [enasidenib]	94.5	115	107	102	79.3	96	106	103	87.8	92.7	106	96.9	110	106	91.7	101	104	99.9	104	92	98.2	94.2	97.9	99.6	101	> 10	> 10	> 10	> 10	> 10	0.5	0.5	0	0	0
